In patent US6610677B2, “Pyrazole compounds useful as protein kinase inhibitors” (Vertex Pharmaceuticals Incorporated, priority 2000, dated 2003) one finds Ki and melting point data, which are given here for 32 compounds.

Broadly, the Ki is a dissociation constant, usually derived from enzyme kinetics or from competition with a known ligand. Low readings indicate a stronger hold on the target, high ones a looser hold on the target. The term melting point denotes the temperature of the solid-liquid transition.

The target of one data set is T1, GSK-3β (AA 1-420) (Homo sapiens, UniProt P49841).
T1 construct: GSK-3β (AA 1-420)
T1 sequence (P49841 whole entry, the tested form may be a part): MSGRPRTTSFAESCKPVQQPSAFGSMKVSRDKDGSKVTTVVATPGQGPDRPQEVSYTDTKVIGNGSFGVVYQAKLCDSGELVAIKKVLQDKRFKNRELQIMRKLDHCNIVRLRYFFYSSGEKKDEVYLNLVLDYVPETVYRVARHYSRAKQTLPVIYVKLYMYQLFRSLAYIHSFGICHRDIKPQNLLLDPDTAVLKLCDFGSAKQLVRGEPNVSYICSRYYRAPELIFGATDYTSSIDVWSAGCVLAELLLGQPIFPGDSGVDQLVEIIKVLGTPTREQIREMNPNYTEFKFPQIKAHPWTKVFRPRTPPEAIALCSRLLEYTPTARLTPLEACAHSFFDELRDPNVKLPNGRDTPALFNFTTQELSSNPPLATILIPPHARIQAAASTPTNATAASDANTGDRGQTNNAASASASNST
Kind of data set: Ki determination for the inhibition of GSK-3 (coupled enzyme system). The class given is biochemical. As to conditions: 20 μM ATP, 300 μM peptide, 20 nM GSK-3β, 30° C. The essentials:
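Pyruvate kinase/lactate dehydrogenase-coupled NADH assay with 20 nM GSK-3β (AA 1-420), 20 μM ATP, 300 μM phosphopeptide HSSPHQS(PO3H2)EDEEE in HEPES pH 7.5, 1.5% DMSO, 30 °C. Compound (12 points, 0.002–30 μM) preincubated 10 min before ATP start; Ki derived from 10-min rates versus inhibitor concentration.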

The target of another data set is T2, Aurora-2 (Homo sapiens, UniProt O14965).
T2 sequence (O14965 1-403): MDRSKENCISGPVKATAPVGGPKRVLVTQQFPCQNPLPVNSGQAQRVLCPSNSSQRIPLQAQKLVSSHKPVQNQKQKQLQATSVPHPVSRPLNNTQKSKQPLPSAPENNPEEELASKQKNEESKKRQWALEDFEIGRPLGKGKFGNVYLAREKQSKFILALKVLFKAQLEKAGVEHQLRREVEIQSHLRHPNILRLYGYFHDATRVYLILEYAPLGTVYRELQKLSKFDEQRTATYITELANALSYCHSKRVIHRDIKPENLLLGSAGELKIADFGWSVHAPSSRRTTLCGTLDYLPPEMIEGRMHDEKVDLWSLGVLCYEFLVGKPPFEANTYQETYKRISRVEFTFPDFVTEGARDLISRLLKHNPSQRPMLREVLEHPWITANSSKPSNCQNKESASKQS
Put plainly: Ki determination for the inhibition of Aurora-2 (coupled enzyme assay). To be noted: 70 nM Aurora-2, peptide LRRASLG, 30° C. The class given is biochemical. As to the method: Compounds were screened in the following manner for their ability to inhibit Aurora-2 using a standard coupled enzyme assay (Fox et al (1998) Protein Sci 7, 2249).
To an assay stock buffer solution containing 0.1M HEPES 7.5, 10 mM MgCl2, 1 mM DTT, 25 mM NaCl, 2.5 mM phosphoenolpyruvate, […], 30 mg/ml pyruvate kinase, 10 mg/ml lactate dehydrogenase, […], and 800 μM peptide (LRRASLG, American Peptide, Sunnyvale, Calif.) was added a DMSO solution of a compound of the present invention to a final concentration of 30 μM. The resulting mixture was incubated at 30° C. for 10 min. The reaction was initiated by the addition of 10 μL of Aurora-2 stock solution to give a final concentration of 70 nM in the assay. The rates of reaction were obtained by monitoring absorbance at 340 nm over a 5 minute read time at 30° C. using a BioRad Ultramark plate reader (Hercules, Calif.). The Ki values were determined from the rate data as a function of inhibitor concentration.

For the compound `Cc1nc(-c2ccccc2C(F)(F)F)nc(Nc2n[nH]c3ccccc23)c1C` [II-24, [5,6-Dimethyl-2-(2-trifluoromethyl-phenyl)-pyrimidin-4-yl]-(1H-indazol-3-yl)-amine], the melting point was 183 to 186 °C. In addition, the Ki at GSK-3β (AA 1-420) was less than 100 nM.
In the case of `Cc1nc(-c2ccccc2C(F)(F)F)nc(Nc2n[nH]c3ccc(F)cc23)c1C` [II-25, [5,6-Dimethyl-2-(2-trifluoromethyl-phenyl)-pyrimidin-4-yl]-(5-fluoro-1H-indazol-3-yl)-amine], the melting point lay in the range of 160 to 163 °C. The compound also had a Ki at GSK-3β (AA 1-420) of less than 100 nM.
Turning to `Nc1ccc2[nH]nc(Nc3nc(-c4ccccc4C(F)(F)F)nc4ccccc34)c2c1` [II-73, (5-Amino-1H-indazol-3-yl)-[2-(2-trifluoromethyl-phenyl)-quinazolin-4-yl]-amine], the melting point was 221 to 223 °C. The Ki at GSK-3β (AA 1-420) is less than 100 nM.
`Cc1cc(Nc2nc(-c3cc(Cl)cc(Cl)c3)nc3ccccc23)[nH]n1` [III-36, [2-(3,5-Dichlorophenyl)-quinazolin-4-yl]-(5-methyl-2H-pyrazol-3-yl)-amine] had a melting point of 228 °C.
In the case of `Cc1cc(Nc2nc(-c3cccc(C(F)(F)F)c3)nc3ccccc23)[nH]n1` [III-53, (5-Methyl-2H-pyrazol-3-yl)-[2-(3-trifluoromethylphenyl)-quinazolin-4-yl]-amine], the Ki on GSK-3β (AA 1-420) and at Aurora-2 was less than 100 nM each time.
For the compound `Cc1cc(Nc2nc(-c3cccc(C#N)c3)nc3ccccc23)[nH]n1` [III-54, [2-(3-Cyanophenyl)-quinazolin-4-yl]-(5-methyl-2H-pyrazol-3-yl)-amine], the Ki on GSK-3β (AA 1-420) and on Aurora-2 was less than 100 nM in each case.
Consider `Cc1cc(Nc2nc(-c3cccc(C(C)C)c3)nc3ccccc23)[nH]n1` [III-55, [2-(3-Isopropylphenyl)-quinazolin-4-yl]-(5-methyl-2H-pyrazol-3-yl)-amine], for which the Ki on GSK-3β (AA 1-420) and on Aurora-2 was less than 100 nM throughout.
Take `Cc1cc(Nc2nc(-c3cccnc3)nc3ccccc23)[nH]n1` [III-56, (5-Methyl-2H-pyrazol-3-yl)-(2-pyridin-3-yl-quinazolin-4-yl)-amine]: the inhibitory constant (Ki) at GSK-3β (AA 1-420) and at Aurora-2 was less than 100 nM throughout.
On to `CC(=O)c1cccc(-c2nc(Nc3cc(C)n[nH]3)c3ccccc3n2)c1` [III-57, [2-(3-Acetylphenyl)-quinazolin-4-yl]-(5-methyl-2H-pyrazol-3-yl)-amine], for which the inhibitory constant (Ki) on GSK-3β (AA 1-420) and at Aurora-2 was less than 100 nM each time.
`Cc1cc(Nc2nc(-c3cc(C(F)(F)F)cc(C(F)(F)F)c3)nc3ccccc23)[nH]n1` [III-58, [2-(3,5-Ditrifluoromethylphenyl)-quinazolin-4-yl]-(5-methyl-2H-pyrazol-3-yl)-amine]: the Ki at GSK-3β (AA 1-420) is less than 100 nM; on Aurora-2 it was 100 to 1000 nM.
Turning to `Cc1cc(Nc2nc(-c3cccc(CO)c3)nc3ccccc23)[nH]n1` [III-59, [2-(3-Hydroxymethylphenyl)-quinazolin-4-yl]-(5-methyl-2H-pyrazol-3-yl)-amine], the Ki at GSK-3β (AA 1-420) and at Aurora-2 was less than 100 nM in each case.
`CC(C)(C)c1cc(Nc2nc(-c3ccncc3)nc3ccccc23)[nH]n1` [III-69, (5-tert-Butyl-2H-pyrazol-3-yl)-(2-pyridin-4-yl-quinazolin-4-yl)-amine] had a melting point of more than 300 °C.
With `O=C(O)c1cc(Nc2nc(-c3ccccc3)nc3ccccc23)[nH]n1` [III-72, (5-Carboxy-2H-pyrazol-3-yl)-(2-phenyl-quinazolin-4-yl)-amine], the melting point is 289 to 291 °C (dec.).
`C=CCNC(=O)c1cc(Nc2nc(-c3ccccc3)nc3ccccc23)[nH]n1` [III-82, (5-Allylcarbamoyl-2H-pyrazol-3-yl)-(2-phenyl-quinazolin-4-yl)-amine]: the values for the Ki at GSK-3β (AA 1-420) and at Aurora-2 were 100 to 1000 nM and 1000 to 20000 nM, respectively.
Turning to `Cc1cc(Nc2nc(N3CCOCC3)nc3ccccc23)[nH]n1` [III-104, (5-Methyl-2H-pyrazol-3-yl)-(2-morpholin-4-yl-quinazolin-4-yl)-amine], the melting point lay in the range of 223 to 224 °C.
For the compound `OCc1cc(Nc2nc(N3CCCCC3)nc3ccccc23)[nH]n1` [III-124, (5-Hydroxymethyl-2H-pyrazol-3-yl)-[2-(piperidin-1-yl)-quinazolin-4-yl]-amine], the Ki on GSK-3β (AA 1-420) and at Aurora-2 was 100 to 1000 nM each time.
Take `Fc1cc(F)c2n[nH]c(Nc3nc(-c4ccccc4)nc4c3CCCC4)c2c1` [III-127, (5,7-Difluoro-1H-indazol-3-yl)-(2-phenyl-5,6,7,8-tetrahydroquinazolin-4-yl)-amine]: the Ki at GSK-3β (AA 1-420) was less than 100 nM; on Aurora-2, 1000 to 20000 nM.
For `Fc1cccc2c(Nc3nc(-c4ccccc4)nc4ccccc34)[nH]nc12` [III-129, (7-Fluoro-1H-indazol-3-yl)-(2-phenyl-quinazolin-4-yl)-amine], the results for the Ki on GSK-3β (AA 1-420) and at Aurora-2 were 100 to 1000 nM and 1000 to 20000 nM, respectively.
On to `Fc1ccc2n[nH]c(Nc3nc(-c4ccccc4)nc4ccccc34)c2c1` [III-130, (5-Fluoro-1H-indazol-3-yl)-(2-phenyl-quinazolin-4-yl)-amine], for which the inhibition constant Ki at GSK-3β (AA 1-420) is less than 100 nM; at Aurora-2, 100 to 1000 nM.
With `FC(F)(F)c1cccc(-c2nc(Nc3[nH]nc4ccccc34)c3ccccc3n2)c1` [III-132, (1H-Indazol-3-yl)-[2-(3-trifluoromethyl-phenyl)-quinazolin-4-yl]-amine], the values for the inhibitory constant (Ki) at GSK-3β (AA 1-420) and on Aurora-2 were 100 to 1000 nM and 1000 to 20000 nM, respectively.
With `c1ccc2c(Nc3n[nH]c4ccccc34)nc(-n3ccnc3)nc2c1` [III-141, (2-imidazol-1-yl-quinazolin-4-yl)-(1H-indazol-3-yl)-amine], the Ki is less than 100 nM on GSK-3β (AA 1-420) and 1000 to 20000 nM at Aurora-2.
On to `Cc1cc(Nc2ccnc(-c3ccccc3)n2)n[nH]1` [IV-1, (5-Methyl-2H-pyrazol-3-yl)-(2-phenyl-pyrimidin-4-yl)-amine], for which the melting point lay in the range of 245 to 246 °C.
As to `CC(=O)Nc1ccc(Sc2cc(Nc3cc(C)[nH]n3)nc(-c3ccccc3)n2)cc1` [IV-3, [6-(4-Acetamidophenylsulfanyl)-2-phenyl-pyrimidin-4-yl]-(5-methyl-2H-pyrazol-3-yl)-amine], the melting point fell in the range of 235 to 236 °C.
On to `Cc1cc(Nc2ccnc(N3CCC(C)CC3)n2)n[nH]1` [IV-4, [2-(4-Methylpiperidin-1-yl)-pyrimidin-4-yl]-(5-methyl-2H-pyrazol-3-yl)-amine], for which the melting point is 215 to 216 °C.
Same read-out and setting: the figure for `Cc1cc(Nc2nc(N3CCC(C)CC3)ncc2[N+](=O)[O-])[nH]n1` [IV-5, [2-(4-Methylpiperidin-1-yl)-5-nitropyrimidin-4-yl]-(5-methyl-2H-pyrazol-3-yl)-amine] is 185 to 187 °C; for `Cc1cc(Nc2nc(N3CCC(C)CC3)nc(C)c2N)n[nH]1` [IV-7, [5-Amino-6-methyl-2-(4-methylpiperidin-1-yl)-pyrimidin-4-yl]-(5-methyl-2H-pyrazol-3-yl)-amine] it is 172 to 175 °C.
As to `Cc1cc(Nc2nc(-c3ccccc3)nc3cnccc23)n[nH]1` [IV-30, (5-Methyl-2H-pyrazol-3-yl)-(2-phenyl-pyrido[3,4-d]pyrimidin-4-yl)-amine], the melting point is 225 °C.
Regarding `Cc1cc(Nc2nc(-c3ccccc3)nc3ncccc23)n[nH]1` [IV-31, (5-Methyl-2H-pyrazol-3-yl)-(2-phenyl-pyrido[2,3-d]pyrimidin-4-yl)-amine], the melting point stood at 234 °C.
On the same count and under the same terms, the figure for `c1ccc(-c2nc(Nc3cc(C4CC4)[nH]n3)c3ccncc3n2)cc1` [IV-32, (5-Cyclopropyl-2H-pyrazol-3-yl)-(2-phenyl-pyrido[3,4-d]pyrimidin-4-yl)-amine] is 232 to 233 °C.
`CC1CCN(c2nc(Nc3cc(C4CC4)n[nH]3)c3nccc-3[nH]2)CC1` [IV-34, (5-Cyclopropyl-2H-pyrazol-3-yl)-[2-(4-methylpiperidin-1-yl)-pyrrolo[3,2-d]pyrimidin-4-yl]-amine]: the Ki on GSK-3β (AA 1-420) and at Aurora-2 was less than 100 nM in each case.
For the compound `FC(F)(F)c1ccccc1-c1nc(Nc2nc[nH]n2)c2ccccc2n1` [IX-47, (2H-[1,2,4]-Triazol-3-yl)-[2-(2-trifluoromethylphenyl)-quinazolin-4-yl]-amine], the Ki at GSK-3β (AA 1-420) was less than 100 nM; on Aurora-2, 1000 to 20000 nM.
Consider `FC(F)(F)c1ccccc1-c1cc(Nc2nc[nH]n2)c2ccccc2n1` [IX-177, (1H-[1,2,4]triazol-3-yl)-[2-(2-trifluoromethyl-phenyl)-quinolin-4-yl]-amine], for which the inhibition constant Ki on GSK-3β (AA 1-420) lay within 100 to 1000 nM; on Aurora-2 it was 1000 to 20000 nM.
